ChEMBL document CHEMBL3045096, “Pharmacophore modeling and 3D-QSAR (CoMSIA) studies for structural requirements of some triazine derivatives as G-quadruplex binders for telomerase inhibition” (Med Chem Res, 2013)

Each molecule was assayed against Telomerase reverse transcriptase (Homo sapiens, UniProt O14746) (assay: Inhibition of telomerase (unknown origin)).
Chain of Telomerase reverse transcriptase (O14746 whole entry): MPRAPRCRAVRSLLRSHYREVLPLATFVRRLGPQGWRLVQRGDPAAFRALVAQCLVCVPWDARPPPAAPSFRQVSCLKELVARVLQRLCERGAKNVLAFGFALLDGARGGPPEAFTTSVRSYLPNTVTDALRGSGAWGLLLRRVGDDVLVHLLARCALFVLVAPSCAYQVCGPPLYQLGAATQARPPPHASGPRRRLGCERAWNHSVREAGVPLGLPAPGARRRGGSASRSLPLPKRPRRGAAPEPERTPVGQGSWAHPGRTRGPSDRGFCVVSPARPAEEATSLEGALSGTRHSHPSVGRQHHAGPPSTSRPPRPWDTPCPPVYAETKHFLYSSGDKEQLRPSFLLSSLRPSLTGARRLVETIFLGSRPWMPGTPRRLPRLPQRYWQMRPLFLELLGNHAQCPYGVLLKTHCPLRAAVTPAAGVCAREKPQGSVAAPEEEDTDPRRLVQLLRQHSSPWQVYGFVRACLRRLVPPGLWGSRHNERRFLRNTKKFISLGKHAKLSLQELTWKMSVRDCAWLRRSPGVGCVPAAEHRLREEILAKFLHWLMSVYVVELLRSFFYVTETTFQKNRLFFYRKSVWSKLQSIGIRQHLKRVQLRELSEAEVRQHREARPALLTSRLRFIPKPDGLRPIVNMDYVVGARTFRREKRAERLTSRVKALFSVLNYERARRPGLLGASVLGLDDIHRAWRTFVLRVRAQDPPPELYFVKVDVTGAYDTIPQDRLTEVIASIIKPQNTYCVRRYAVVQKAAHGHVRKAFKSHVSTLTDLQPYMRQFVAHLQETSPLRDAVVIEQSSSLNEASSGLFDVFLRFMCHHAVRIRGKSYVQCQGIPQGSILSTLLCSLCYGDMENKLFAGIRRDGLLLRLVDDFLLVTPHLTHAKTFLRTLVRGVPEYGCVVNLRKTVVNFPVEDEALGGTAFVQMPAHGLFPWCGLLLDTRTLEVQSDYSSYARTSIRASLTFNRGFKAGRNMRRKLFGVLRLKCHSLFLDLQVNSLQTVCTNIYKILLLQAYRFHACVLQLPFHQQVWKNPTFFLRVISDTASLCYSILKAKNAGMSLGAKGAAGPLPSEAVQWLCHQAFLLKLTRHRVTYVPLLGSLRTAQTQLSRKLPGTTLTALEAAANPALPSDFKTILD

IC50 [nM]	SMILES
3300	CSc1nc(Nc2cccc(C(=N)N)c2)nc(Nc2ccc3nc(C)cc(N)c3c2)n1
3400	CSc1nc(Nc2ccc(C#N)cc2)nc(Nc2ccc3nc(C)cc(N)c3c2)n1
3400	CSc1nc(Nc2ccc3nc(C)cc(C)c3c2)nc(Nc2ccnc3ccccc23)n1
3300	COc1ccc2nccc(Nc3nc(Nc4ccc5nc(C)cc(C)c5c4)nc(SC)n3)c2c1
3300	CSc1nc(Nc2ccc3nc[nH]c3c2)nc(Nc2ccc3nc(C)cc(C)c3c2)n1
2200	CCc1cc(Nc2nc(Nc3ccc4nc(C)cc(N)c4c3)nc(SC)n2)ccn1
1000	CSc1nc(Nc2ccc3nc(C)ccc3c2)nc(Nc2ccc3nc(C)cc(N)c3c2)n1
2500	CCN(CC)c1nc(Nc2ccc3ncccc3c2)nc(Nc2ccc3nc(C)cc(N)c3c2)n1
3400	CCN(CC)c1nc(Nc2ccncc2)nc(Nc2ccc3nc(C)cc(C)c3c2)n1
510	CNc1nc(Nc2ccc3nc(C)cc(N)c3c2)nc(Nc2ccc3nc(C)cc(N)c3c2)n1
51	Cc1cc(N)c2cc(Nc3nc(N)nc(Nc4ccc5nc(C)cc(N)c5c4)n3)ccc2n1
3000	Cc1cc(N(C)C)c2cc(Nc3nc(Cl)nc(Nc4ccc5nc(C)cc(N(C)C)c5c4)n3)ccc2n1
49	CSc1nc(Nc2ccc3nc(C)cc(N)c3c2)nc(Nc2ccc3nc(C)cc(N)c3c2)n1
3900	COc1cc(C)nc2ccc(Nc3nc(Nc4ccc5nc(C)cc(OC)c5c4)nc(SC)n3)cc12
2300	COc1cc(C)nc2ccc(Nc3nc(Nc4ccc5nc(C)cc(N)c5c4)nc(SC)n3)cc12
340	CSc1nc(Nc2ccc3nc(C)cc(N)c3c2)nc(Nc2ccc3nc(C)cc(N(C)C)c3c2)n1
3400	CSc1nc(Nc2ccc3nc(C)cc(C)c3c2)nc(Nc2ccc3nc(C)cc(N)c3c2)n1
2600	CSc1nc(Nc2ccc3ncccc3c2)nc(Nc2ccc3nc(C)cc(N)c3c2)n1

Continued, molecule first:

SMILES	IC50 [nM]
C[n+]1cccc2cc(Nc3nc(N)nc(Nc4ccc5c(ccc[n+]5C)c4)n3)ccc21	130
CSc1nc(Nc2ccc3nc(C)cc(N(C)C)c3c2)nc(Nc2ccc3nc(C)cc(N(C)C)c3c2)n1	41
CCn1c2ccccc2c2cc(Nc3nc(Nc4ccc5nc(C)cc(N)c5c4)nc(SC)n3)ccc21	2800
Cc1cc(N)c2cc(Nc3ccnc(Nc4ccc5nc(C)cc(N)c5c4)n3)ccc2n1	490
Cc1cc(N)c2cc(NC(=N)NC(=N)Nc3ccc4nc(C)cc(N)c4c3)ccc2n1	2000
CC[n+]1c(C)cc(N)c2cc(Nc3nc(N)nc(Nc4ccc5c(c4)c(N)cc(C)[n+]5CC)n3)ccc21	56
Cc1cc(N)c2cc(Nc3nc(Nc4ccc5c(c4)c(N)cc(C)[n+]5C)nc(N(C)C)n3)ccc2[n+]1C	220
CNc1nc(Nc2ccc3nc(C)cc(NC)c3c2)nc(Nc2ccc3nc(C)cc(NC)c3c2)n1	300
C[n+]1c2ccccc2c(N)c2cc(Nc3nc(N)nc(Nc4ccc5c(c4)c(N)c4ccccc4[n+]5C)n3)ccc21	890
N=C(N)c1ccc(Nc2nc(N)nc(Nc3ccc(C(=N)N)cc3)n2)cc1	740
CSc1nc(Nc2ccc3c(c2)c(=N)cc(C)n3C)nc(Nc2ccc3c(c2)c(=N)cc(C)n3C)n1	950
CSc1nc(Nc2ccc3nc(C)cc(N)c3c2)nc(N(C)c2ccc3ncccc3c2)n1	3500
Cc1cc(N)c2cc(Nc3nc(N)nc(Nc4ccc5c(c4)c(N)cc(C)[n+]5C)n3)ccc2[n+]1C	250
